# Experiments:
# [1] = system: young oophorectomized rats; experiment: Estrogenic activity (uterine wet weight) in young oophorectomized rats; assay type: in vivo, Sprague-Dawley rats
# Experimental: Sprague-Dawley rats, 33 days old and 11 days after oophorectomy for elimination of endogenous estrogenic activity, were used in groups of 6 to 7 animals. Compound (I) was suspended in a 1% aqueous solution of hydroxypropylcellulose and administered orally for 3 days, while as a representative example of the conventional estrogen drug, estrone was dissolved in sesame oil and administered subcutaneously for 3 days. On the fourth day, each animal was autopsied and its uterine wet weight was recorded.
# Sprague-Dawley rats, 33 days old and 11 days after oophorectomy for elimination of endogenous estrogenic activity, were used in groups of 7 animals. Compound (II) was suspended in a 1% aqueous solution of hydroxypropylcellulose and administered orally.
# [2] = system: rat fetal long bone culture; experiment: Bone resorption inhibiting activity in rat fetal long bone culture (45Ca release, method of Raisz); assay type: cell-based, Sprague-Dawley rat; details: for ^45Ca (%) released: incubated 3 days, mean ± S.D. of six bones; for bone resorption: result in words, summary of Table 3
# Experimental: Determination of bone resorption was performed by the method of Raisz [J. Clin. Invest. 44, 103-116 (1965)]. rhus, a Sprague-Dawley rat on the 19th day of pregnancy was subcutaneously injected with 50 p Ci of 45Ca (isotope of calcium, CaCl2 solution), and was laparotomized on the following day. The embryos were aseptically taken out, the forelimbs (radius and ulna) were cut off from the trunk under a binocular dissecting microscope, and the connective tissue and cartilage were removed as much as possible to prepare bone samples. Each bone sample was preincubated at 37°C for 24 hours in 0.6 mℓ of the medium containing 2 mg/mℓ of bovine serum albumin in BGJb medium (Fitton-Jackson modification) [GIBCO Laboratories, Grand Island, NY 14072 U.S.A.]. Then, the sample was further incubated for 3 days in the same medium as above in which 10 µg/mℓ or 25 µg/mℓ of compound (I) or 10 µg/mℓ of compound (II) had been incorporated. Then, the radioactivity of 45Ca in the medium and that of 45Ca in the bone were measured and the percentage (%) of ^45Ca released from the bone into the medium was calculated by the following formula.
# Percentage (%) of 45 Ca released from bone into medium [formula]
# As control, the bones of the embryos from the same litter were similarly incubated in the absence of compound (I) or (II) for 3 days.
# [3] = system: rat fetal long bone culture; experiment: Inhibition of the bone resorption potentiating action of parathyroid hormone in rat fetal long bone culture; assay type: cell-based
# Experimental: The bone samples prepared in the same manner as Test Example 3 were pre-incubated for 24 hours in the same medium as that prepared in Test Example 3 which contains bovine serum album in BGJb medium (Fitton-Jackson modification). Then, in the concomitant presence of PTH (parathyroid hormone, a bone resorption stimulant) and compound (II), the samples were further incubated for 3 days and the percentage of ^45Ca released into the medium was calculated by means of the same formula as that in Test Example 3. As control experiments, the same determination was made for a control group using the medium supplemented with PTH alone.
# [4] = system: ICR mice; experiment: Acute toxicity in mice; assay type: in vivo; details: observed 14 days, LD50 could not be calculated
# Experimental: (§1) Five-week-old ICR mice and 5-week-old Sprague-Dawley rats were respectively used in groups of 10 males and 10 females, and suspensions of compound (I) or compound (II) in olive oil were administered orally [2,500, 5,000 and 10,000 mg/kg of each compound] or subcutaneously [1,250, 2,500 and 5,000 mg/kg]. The animals were kept under observation for 14 days.
# [5] = system: Sprague-Dawley rats; experiment: Acute toxicity in rats; assay type: in vivo; details: observed 14 days, LD50 could not be calculated
# Experimental: as §1
# [6] = orally 2,500, 5,000 and 10,000 mg/kg in olive oil
# [7] = subcutaneously 1,250, 2,500 and 5,000 mg/kg in olive oil
smiles,measurement,setting,value
"O=c1c(-c2ccccc2)coc2cc(O)ccc12 [Compound (I), 7-hydroxy-isoflavone]",Uterine wet weight (mg ± S.D.),"[1]; daily dose 6.25 mg/kg orally for 3 days, control group 35.0 ± 1.0",32.8 ± 1.1 mg
same,Uterine wet weight (mg ± S.D.),"[1]; daily dose 12.5 mg/kg orally for 3 days, control group 35.0 ± 1.0",33.4 ± 0.9 mg
same,Uterine wet weight (mg ± S.D.),"[1]; daily dose 25 mg/kg orally for 3 days, control group 35.0 ± 1.0",35.1 ± 0.8 mg
same,Uterine wet weight (mg ± S.D.),"[1]; daily dose 50 mg/kg orally for 3 days, control group 35.0 ± 1.0",35.3 ± 1.7 mg
same,Uterine wet weight (mg ± S.D.),"[1]; daily dose 100 mg/kg orally for 3 days, control group 35.0 ± 1.0",35.9 ± 1.0 mg
same,Uterine wet weight (mg ± S.D.),"[1]; daily dose 200 mg/kg orally for 3 days, control group 35.0 ± 1.0",57.9 ± 1.0 mg
same,Uterine wet weight (mg ± S.D.),"[1]; daily dose 400 mg/kg orally for 3 days, control group 35.0 ± 1.0",70.4 ± 6.7 mg
same,"uterine weight increasing effect, dose-response curve","[1]; orally, daily dose levels of 200 mg/kg and 400 mg/kg",produced uterine weight increasing effect with a dose-response curve of moderate gradient
same,^45Ca (%) released,"[2]; 10 µg/mℓ, control group 20.6 ± 3.8",16.5 ± 2.5 %
same,^45Ca (%) released,"[2]; 25 µg/mℓ, control group 20.6 ± 3.8",13.5 ± 2.5 %
same,bone resorption,[2],suppressed bone resorption
"O=c1c(-c2ccc(O)cc2)coc2cc(O)ccc12 [Compound (II), 7,4'-dihydroxy-isoflavone]",Uterine wet weight (mg ± S.D.),"[1]; Test Example 2, daily dose 6.25 mg/kg orally, control group 31.1 ± 1.1",33.2 ± 0.8 mg
same,Uterine wet weight (mg ± S.D.),"[1]; Test Example 2, daily dose 25 mg/kg orally, control group 31.1 ± 1.1",32.8 ± 1.0 mg
same,Uterine wet weight (mg ± S.D.),"[1]; Test Example 2, daily dose 100 mg/kg orally, control group 31.1 ± 1.1",35.3 ± 1.3 mg
same,Uterine wet weight (mg ± S.D.),"[1]; Test Example 2, daily dose 400 mg/kg orally, control group 31.1 ± 1.1",62.3 ± 6.0 mg
same,uterine weight increasing activity,"[1]; orally, dose level of 400 mg/kg",showed mild uterine weight increasing activity
same,^45Ca (%) released,"[2]; 10 µg/mℓ, control group 19.9 ± 5.0",15.9 ± 1.3 %
same,bone resorption,[2],suppressed bone resorption
same,^45Ca (%) released,"[3]; 10 µg/ml in concomitant presence of PTH, incubated 3 days, control group (PTH alone) 30.8±4.3",23.5±3.4 %
same,PTH-stimulated bone resorption,"[3]; result in words, summary of Table 4",suppressed PTH-stimulated bone resorption
same,deaths and toxic symptoms,[4]; [6],None of the groups showed deaths nor toxic symptoms
same,deaths and toxic symptoms,[4]; [7],None of the groups showed deaths nor toxic symptoms
same,deaths and toxic symptoms,[5]; [6],None of the groups showed deaths nor toxic symptoms
same,deaths and toxic symptoms,[5]; [7],None of the groups showed deaths nor toxic symptoms
"C[C@]12CC[C@@H]3c4ccc(O)cc4CC[C@H]3[C@@H]1CCC2=O [Estrone, estrone, reference compound]",Uterine wet weight (mg ± S.D.),"[1]; daily dose 0.0025 mg/kg subcutaneously in sesame oil for 3 days, control group 35.0 ± 1.0",101.7 ± 4.6 mg
same,Uterine wet weight (mg ± S.D.),"[1]; daily dose 0.005 mg/kg subcutaneously in sesame oil for 3 days, control group 35.0 ± 1.0",159.8 ± 9.4 mg
same,Uterine wet weight (mg ± S.D.),"[1]; daily dose 0.01 mg/kg subcutaneously in sesame oil for 3 days, control group 35.0 ± 1.0",223.3 ± 12.5 mg

# — patent EP0135172A2, “Method for treatment of osteoporosis” (Takeda Chemical Industries, Ltd., priority 1983, dated 1985)
